# Data from PubChem BioAssay AID743413 (Broad Institute, 2014).
# Calls of active or inactive are those of the source.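 The calls were made as follows: active = compounds lowering cell ATP signal with a fitted AC50 at or below twice their top tested dose; inconclusive = flat curve between 30% and 70% loss, or poor fit; inactive = the rest.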
# Key:
# [1] = A549 cell cytotoxicity, dose response, cytotoxicity control, plate reader, dry powder, set 11 (AID 743413); details: A549 viability, CellTiter-Glo ATP luminescence, 72 h
# [2] = system: A549 viability, CellTiter-Glo ATP luminescence, 72 h; test: as above
Compound,"activity change, negative = cytotoxicity ([1]; at 26 µM (top of the series))",further results
CN(C(=O)COc1ccc(Cl)cc1C(N)=O)c1ccccc1,2.07% (inactive),
O=C(COc1ccc(C(=O)NCC2CCCO2)cc1)Nc1cccc(C(F)(F)F)c1 (stereo unspecified),1.08% (inactive),
Cc1cccc(CCNC(=O)CSc2c3c(nc4ccc(Cl)cc24)CCCC3)c1,,AC50 [2]: > 52 µM (inactive)
NC(=O)C1CCN(C(=O)c2ccc(OCC(=O)Nc3cccc(C(F)(F)F)c3)cc2)CC1,8.43% (inactive),
CCN(CC)C(=O)CSc1c2c(nc3ccc(Cl)cc13)CCCC2,-10.9% (inactive),
COc1cc(C(=O)NCCCN(C)C)ccc1OCC(=O)Nc1cccc(C(F)(F)F)c1,-6.69% (inactive),
O=C(CSc1c2c(nc3ccc(Cl)cc13)CCCC2)NCCN1CCN(Cc2ccccc2)CC1,,AC50 [2]: 26.7 µM
Cn1cc(SCC(=O)NCc2ccco2)c2ccccc21,-0.441% (inactive),
O=C(CSc1c2c(nc3ccc(Cl)cc13)CCCC2)N1CCC(N2CCCCC2)CC1,,AC50 [2]: 26.6 µM
COc1ccc(CNC(=O)CSc2c3c(nc4ccc(Cl)cc24)CCCC3)cc1,,AC50 [2]: > 52 µM (inactive)
O=C(CSc1c2c(nc3ccc(Cl)cc13)CCCC2)NCCCc1ccccc1,,AC50 [2]: > 52 µM (inactive)
CCOC(=O)C1CCN(C(=O)c2ccc(OCC(=O)Nc3ccc(OCC)cc3)c(OC)c2)CC1,5.86% (inactive),
CN(CCNC(=O)CSc1c2c(nc3ccc(Cl)cc13)CCCC2)Cc1ccccc1,-8.03% (inactive),
O=C(CSc1c2c(nc3ccc(Cl)cc13)CCCC2)NCc1ccc2c(c1)OCO2,,AC50 [2]: > 52 µM (inactive)
O=C(CSc1ccc2ccccc2n1)NCc1ccco1,-6.75% (inactive),
CN(C(=O)COc1ccccc1C(=O)Nc1ccccc1)c1ccccc1,-12% (inactive),
O=C(COc1ccc(C(=O)N2CCC2)cc1)Nc1cccc(C(F)(F)F)c1,2.9% (inactive),
COc1ccc(NC(=O)CSc2c3c(nc4ccc(Cl)cc24)CCCC3)cc1,,AC50 [2]: > 52 µM (inactive)
CC(Sc1c2c(nc3ccc(Cl)cc13)CCCC2)C(=O)NCc1ccco1 (stereo unspecified),-8.08% (inactive),
COC(=O)CCCN(C)C(=O)c1ccc(OCC(=O)Nc2cccc(OC)c2)cc1,-0.651% (inactive),
Cc1ccc2nc(Cl)cc(SCC(=O)NCc3ccco3)c2c1,-7.2% (inactive),
Cc1ccc(NC(=O)COc2ccccc2C(=O)NCCN(C)C)cc1,-4.77% (inactive),
O=C(CSc1c2c(nc3ccc(Cl)cc13)CCCC2)NCC1(c2ccccc2)CCCC1,-1.8% (inactive),
CCOC(=O)N1CCC(NC(=O)CSc2c3c(nc4ccc(Cl)cc24)CCCC3)CC1,-13.1% (inactive),
CN(C)c1ccc(NC(=O)COc2ccccc2C(=O)N2CCOCC2)cc1,-1.46% (inactive),
O=C(CSc1c2c(nc3ccc(Cl)cc13)CCCC2)N1CCCCC1,,AC50 [2]: > 52 µM (inactive)

Compound,"activity change, negative = cytotoxicity ([1]; at 26 µM (top of the series))",further results
O=C(O)CSc1c2c(nc3cc(C(=O)NCc4cccs4)ccc13)CCCC2,-2.24% (inactive),
Cn1c(=O)cc(SCC(=O)NCc2ccco2)c2ccccc21,5.32% (inactive),
O=C(COc1ccc(C(=O)N2CCN(C(=O)C3CC3)CC2)cc1)Nc1cccc(C(F)(F)F)c1,-1.09% (inactive),
COc1cc(CNCCCN2CCOCC2)ccc1OCC(=O)Nc1cccc(C(F)(F)F)c1,,"activity change, negative = cytotoxicity ([1]; at 12 µM (top of the series)): 7.4% (inactive)"
CCOC(=O)C1CCN(C(=O)c2ccc(OCC(=O)N3CCOCC3)c(OC)c2)CC1,-3.29% (inactive),
O=C(CSc1cccc2cccnc12)NCc1ccco1,-1.12% (inactive),
O=C(CSc1c2c(nc3ccc(Cl)cc13)CCCC2)NCc1cccs1,,AC50 [2]: > 52 µM (inactive)
O=C(CSc1c2c(nc3ccc(Cl)cc13)CCCC2)N1CCNC1=O,-13.8% (inactive),
Cc1ccc(CNC(=O)CSc2c3c(nc4ccc(Cl)cc24)CCCC3)cc1,,AC50 [2]: > 52 µM (inactive)
CC1(C)CC(NC(=O)c2ccc(OCC(=O)Nc3cccc(C(F)(F)F)c3)cc2)CC(C)(C)N1,-14.3% (inactive),
CCCCOc1ccc(NC(=O)COc2ccccc2C(=O)NCCOc2ccccc2)cc1,-9.94% (inactive),
O=C(CSc1c2c(nc3ccc(Cl)cc13)CCCC2)NC1CCCC1,-25.2% (inactive),
CN(CCOc1ccccc1)C(=O)c1ccc(OCC(=O)Nc2cccc(C(F)(F)F)c2)cc1,0.912% (inactive),
CN(C(=O)COc1ccccc1C(N)=O)c1ccccc1,-1.13% (inactive),
COc1ccc(OCCNC(=O)c2ccccc2OCC(=O)Nc2ccc(NC(C)=O)cc2)cc1,-14.7% (inactive),
CCOc1ccc(NC(=O)COc2ccc(C(=O)N3CCC(C(N)=O)CC3)cc2OC)cc1,-3.38% (inactive),
O=C(COc1ccccc1C(=O)NCCOc1ccc(Cl)cc1)Nc1cccc(Cl)c1,-15.3% (inactive),
O=C(COc1ccc(C(=O)NC2CCCCC2)cc1)Nc1cccc(C(F)(F)F)c1,-0.017% (inactive),
CCN1CCCC1CNC(=O)CSc1c2c(nc3ccc(Cl)cc13)CCCC2 (stereo unspecified),,AC50 [2]: 16.2 µM
O=C(CSc1c2c(nc3ccc(Cl)cc13)CCCC2)Nc1ccccc1,,AC50 [2]: > 52 µM (inactive)
O=C(COc1ccccc1C(=O)NCc1ccccc1)Nc1ccccc1,-5.99% (inactive),
O=C(CSc1c2c(nc3ccc(Cl)cc13)CCCC2)NC1CC1,,AC50 [2]: > 52 µM (inactive)
O=C(CSc1c2c(nc3cc(Cl)ccc13)CCCC2)N(Cc1ccco1)C1CCCC1,,AC50 [2]: > 52 µM (inactive)
COCCN(Cc1ccco1)C(=O)CSc1c2c(nc3cc(Cl)ccc13)CCCC2,,"activity change, negative = cytotoxicity ([1]; at 12 µM (top of the series)): -3.68% (inactive)"
COc1ccc(N(Cc2cccs2)C(=O)COc2ccccc2C(=O)Nc2ccccc2)cc1,-14% (inactive),
